ChEMBL document CHEMBL1955806, “Design, synthesis, single-crystal and preliminary antitumor activity of novel arenesulfonylimidazolidin-2-ones” (2012)

Legend:
Format in all cases: functional
SK-MEL-2 = experiment: Growth inhibition of human SK-MEL-2 cells at 10 uM after 48 hrs by sulforhodamine B assay; settings: SK-MEL-2, 48 h, read-out: GI
DU-145 = experiment: Growth inhibition of human DU145 cells at 10 uM after 48 hrs by sulforhodamine B assay; settings: DU-145, 48 h, read-out: GI
HCT-15 = experiment: Growth inhibition of human HCT15 cells at 10 uM after 48 hrs by sulforhodamine B assay; settings: HCT-15, 48 h, read-out: GI
HOP-92 = experiment: Growth inhibition of human HOP92 cells at 10 uM after 48 hrs by sulforhodamine B assay; settings: HOP-92, 48 h, read-out: GI
NCI-H322M = experiment: Growth inhibition of human NCI-H322M cells at 10 uM after 48 hrs by sulforhodamine B assay; settings: read-out: GI
OVCAR-3 = experiment: Growth inhibition of human OVCAR3 cells at 10 uM after 48 hrs by sulforhodamine B assay; settings: OVCAR-3, 48 h, read-out: GI
SK-MEL-28 = experiment: Growth inhibition of human SK-MEL-28 cells at 10 uM after 48 hrs by sulforhodamine B assay; settings: SK-MEL-28, 48 h, read-out: GI
OVCAR-5 = experiment: Growth inhibition of human OVCAR5 cells at 10 uM after 48 hrs by sulforhodamine B assay; settings: OVCAR-5, 48 h, read-out: GI
SNB-19 = experiment: Growth inhibition of human SNB19 cells at 10 uM after 48 hrs by sulforhodamine B assay; settings: SNB-19, 48 h, read-out: GI
COLO 205 = experiment: Growth inhibition of human COLO205 cells at 10 uM after 48 hrs by sulforhodamine B assay; settings: COLO 205, 48 h, read-out: GI
Hs-578T = experiment: Growth inhibition of human Hs578T cells at 10 uM after 48 hrs by sulforhodamine B assay; settings: read-out: GI
K562 = experiment: Growth inhibition of human K562 cells at 10 uM after 48 hrs by sulforhodamine B assay; settings: K562, 48 h, read-out: GI
HCT-116 = experiment: Growth inhibition of human HCT116 cells at 10 uM after 48 hrs by sulforhodamine B assay; settings: HCT-116, 48 h, read-out: GI
RXF 393 = experiment: Growth inhibition of human RXF393 cells at 10 uM after 48 hrs by sulforhodamine B assay; settings: RXF 393, 48 h, read-out: GI
CCRF-CEM = experiment: Growth inhibition of human CCRF-CEM cells at 10 uM after 48 hrs by sulforhodamine B assay; settings: read-out: GI
UACC-62 = experiment: Growth inhibition of human UACC62 cells at 10 uM after 48 hrs by sulforhodamine B assay; settings: UACC-62, 48 h, read-out: GI
PC-3 = experiment: Growth inhibition of human PC3 cells at 10 uM after 48 hrs by sulforhodamine B assay; settings: PC-3, 48 h, read-out: GI
786-0 = experiment: Growth inhibition of human 786-0 cells at 10 uM after 48 hrs by sulforhodamine B assay; settings: 786-0, 48 h, read-out: GI
SNB-75 = experiment: Growth inhibition of human SNB75 cells at 10 uM after 48 hrs by sulforhodamine B assay; settings: SNB-75, 48 h, read-out: GI
SN12C = experiment: Growth inhibition of human SN12C cells at 10 uM after 48 hrs by sulforhodamine B assay; settings: read-out: GI
KM12 = experiment: Growth inhibition of human KM12 cells at 10 uM after 48 hrs by sulforhodamine B assay; settings: KM12, 48 h, read-out: GI
M14 = experiment: Growth inhibition of human M14 cells at 10 uM after 48 hrs by sulforhodamine B assay; settings: M14, 48 h, read-out: GI
HL-60(TB) = experiment: Growth inhibition of human HL-60(TB) cells at 10 uM after 48 hrs by sulforhodamine B assay; settings: HL-60, 48 h, read-out: GI
CAKI-1 = experiment: Growth inhibition of human CAKI-1 cells at 10 uM after 48 hrs by sulforhodamine B assay; settings: CAKI-1, 48 h, read-out: GI
UO-31 = experiment: Growth inhibition of human UO31 cells at 10 uM after 48 hrs by sulforhodamine B assay; settings: UO-31, 48 h, read-out: GI
TK-10 = experiment: Growth inhibition of human TK10 cells at 10 uM after 48 hrs by sulforhodamine B assay; settings: TK-10, 48 h, read-out: GI
NCI-H226 = experiment: Growth inhibition of human NCI-H226 cells at 10 uM after 48 hrs by sulforhodamine B assay; settings: NCI-H226, 48 h, read-out: GI
A498 = experiment: Growth inhibition of human A498 cells at 10 uM after 48 hrs by sulforhodamine B assay; settings: A498, 48 h, read-out: GI
MCF7 = experiment: Growth inhibition of human MCF7 cells at 10 uM after 48 hrs by sulforhodamine B assay; settings: MCF7, 48 h, read-out: GI
UACC-257 = experiment: Growth inhibition of human UACC257 cells at 10 uM after 48 hrs by sulforhodamine B assay; settings: UACC-257, 48 h, read-out: GI
HCC 2998 = experiment: Growth inhibition of human HCC2998 cells at 10 uM after 48 hrs by sulforhodamine B assay; settings: HCC 2998, 48 h, read-out: GI
NCI-H522 = experiment: Growth inhibition of human NCI-H522 cells at 10 uM after 48 hrs by sulforhodamine B assay; settings: NCI-H522, 48 h, read-out: GI
IGROV-1 = experiment: Growth inhibition of human IGROV1 cells at 10 uM after 48 hrs by sulforhodamine B assay; settings: IGROV-1, 48 h, read-out: GI
RPMI-8226 = experiment: Growth inhibition of human RPMI8226 cells at 10 uM after 48 hrs by sulforhodamine B assay; settings: RPMI-8226, 48 h, read-out: GI
MDA-MB-468 = experiment: Growth inhibition of human MDA-MB-468 cells at 10 uM after 48 hrs by sulforhodamine B assay; settings: MDA-MB-468, 48 h, read-out: GI
NCI/ADR-RES = experiment: Growth inhibition of human NCI/ADR-RES cells at 10 uM after 48 hrs by sulforhodamine B assay; settings: read-out: GI
SK-MEL-5 = experiment: Growth inhibition of human SK-MEL-5 cells at 10 uM after 48 hrs by sulforhodamine B assay; settings: SK-MEL-5, 48 h, read-out: GI
OVCAR-4 = experiment: Growth inhibition of human OVCAR4 cells at 10 uM after 48 hrs by sulforhodamine B assay; settings: OVCAR-4, 48 h, read-out: GI
U-251 = experiment: Growth inhibition of human U251 cells at 10 uM after 48 hrs by sulforhodamine B assay; settings: U-251, 48 h, read-out: GI

SMILES: CO[C@@H]1[C@@H](OC)N(S(=O)(=O)c2ccc(Cl)cc2)C(=O)N1S(=O)(=O)c1ccc(Cl)cc1 (relative stereo)
- inhibition of growth at 10 µM (SK-MEL-2): 13.1%
- inhibition of growth at 10 µM (DU-145): -9.28%
- inhibition of growth at 10 µM (HCT-15): 19.8%
- inhibition of growth at 10 µM (HOP-92): 49.9%
- inhibition of growth at 10 µM (NCI-H322M): 14.7%
- inhibition of growth at 10 µM (OVCAR-3): -4.48%
- inhibition of growth at 10 µM (SK-MEL-28): -7.4%
- inhibition of growth at 10 µM (OVCAR-5): 8.25%
- inhibition of growth at 10 µM (SNB-19): 2.72%
- inhibition of growth at 10 µM (COLO 205): -3.4%
- inhibition of growth at 10 µM (Hs-578T): -4.94%
- inhibition of growth at 10 µM (K562): 23.2%
- inhibition of growth at 10 µM (HCT-116): 33.1%
- inhibition of growth at 10 µM (RXF 393): -11.5%
- inhibition of growth at 10 µM (CCRF-CEM): 15.5%
- inhibition of growth at 10 µM (UACC-62): 42.1%
- inhibition of growth at 10 µM (PC-3): 29.8%
- inhibition of growth at 10 µM (786-0): 16.8%
- inhibition of growth at 10 µM (SNB-75): 19.7%
- inhibition of growth at 10 µM (SN12C): 14.4%
- inhibition of growth at 10 µM (KM12): 3.47%
- inhibition of growth at 10 µM (M14): 6.23%
- inhibition of growth at 10 µM (HL-60(TB)): 3.82%
- inhibition of growth at 10 µM (CAKI-1): 67.5%
- inhibition of growth at 10 µM (UO-31): 39.4%
- inhibition of growth at 10 µM (TK-10): 7.51%
- inhibition of growth at 10 µM (NCI-H226): 4.24%
- inhibition of growth at 10 µM (A498): 4.59%
- inhibition of growth at 10 µM (MCF7): 16%
- inhibition of growth at 10 µM (UACC-257): -11.6%
- inhibition of growth at 10 µM (HCC 2998): 5.43%
- inhibition of growth at 10 µM (NCI-H522): 26.7%
- inhibition of growth at 10 µM (IGROV-1): 23.1%
- inhibition of growth at 10 µM (RPMI-8226): 21.9%
- inhibition of growth at 10 µM (MDA-MB-468): 6.61%
- inhibition of growth at 10 µM (NCI/ADR-RES): 13.8%
- inhibition of growth at 10 µM (SK-MEL-5): -2.95%
- inhibition of growth at 10 µM (OVCAR-4): 21.3%
- inhibition of growth at 10 µM (U-251): 6.07%
